Reference: publication PMC12081870 (Communications Biology, 2025)

What was measured:
actin [1] = assay: TIRF assay, nucleation of actin filaments (filament number); assay type: biochemical, rabbit
Procedure: To assess how filaments generated in the presence or absence of Arp2/3 differ, a TIRF-based assay was used. Videos of representative assays are shown in Supplementary Videos 1, 2, 3 and combined in Supplementary Video 4.
(§1) Actin filament growth rate assays. Total Internal Reflection microscopy (TIRFm) was performed using a method modified from[58] using purified rabbit muscle actin and Alexa488 actin (Cytoskeleton, Inc) at a 4:1 ratio. Glass coverslips (Deckgläser) were cleaned using a modification of the method described. Briefly, coverslips were rinsed with gentle agitation in acetone (30 min), then water (5 min) then cleaned in Piranha solution (13 ml concentrated sulphuric acid and 6 ml hydrogen peroxide) for 90 min before rinsing with distilled water and ethanol, drying and coating with 1 mg/ml mPEG silane MW 2000 (Layssan Bio). TIRF reaction buffers 10× KMEI, GOC mixture, and methyl cellulose (400 cP, Sigma) were prepared in advance. 10× KMEI buffer (500 mM KCl, 100 mM Imidazole (pH 7.0), 10 mM MgCl2, 10 mM EGTA (pH 7.0)) was filtered through a sterile syringe-filter device (0.22 μm, Thermo Fisher Scientific) and stored at room temperature. GOC mixture was prepared by dissolving 20 mg of Catalase (Calbiochem) and 100 mg of Glucose-oxidase in 10 ml cold water. […]

actin [2] = assay: TIRF assay, actin filament growth (elongation) rate; assay type: biochemical, rabbit; settings: 0.5 µM actin, vs actin only
Procedure: as §1, with “water. Undissolved particles were cleared by ultracentrifugation and 50 μl aliquots from the upper 90% of the supernatant were stored at −20 °C. 50 ml of 2% methyl cellulose was prepared by dissolving 1 g methylcellulose in 25 ml of Milli-Q water preheated to 65 °C, before adding 25 ml of room temperature water and rotating overnight at 4 °C.” for “water.”

[3] = system: Las17-GFP and Arc15-mCherry; assay: Dual-reporter lifetimes, Las17-GFP and Arc15-mCherry co-localisation; assay type: cell-based, Saccharomyces cerevisiae; settings: Las17-GFP / Arc15-mCherry dual-label strain
Procedure: A size bar for each set of kymographs is shown on the upper right of each set. For (A) and (C) size bar is 100 nm and for B is 200 nm. Error bars are standard deviation. […] The site of interest is labelled in the first two time panels with a white arrow. Exposure 0.5 sec with 1 second time lapse. 120 s recorded. […] Error bars are standard deviation.
Individual spots were analysed for lifetimes and behaviours.
Yeast strains used in this study are listed in Supplementary table 2 and plasmids used in Supplementary table 1. Unless stated otherwise, cells were grown with rotary shaking at 30 °C in liquid YPD medium (1% yeast extract, 2% Bacto-peptone, 2% glucose supplemented with 40 μg/ml adenine) or in synthetic medium (0.67% yeast nitrogen base, 2% glucose) with appropriate supplements. […] DNA cassettes carrying mutations for integration were transformed into KAY1801. Mutant colonies were counter-selected on minimal medium, containing 0.005% uracil and 0.1% 5’-Fluoroorotic Acid (5-FOA; Melford laboratories). Allele exchange, in growing Ura3^-, 5-FOA resistant colonies, was confirmed by PCR and sequencing.
For live-cell imaging, cells expressing tagged proteins were visualised after growing to early log phase. Analysis was carried out at room temperature (22 °C). […] Images were taken simultaneously on separate scientific complementary metal oxide semiconductor (sCMOS) cameras (30 msec exposure). Seven 250 nm sections were acquired every 0.5 sec (241 time points). The stacks were then deconvolved and processed, using SoftWorx. Protein localisation and lifetime was analysed from those projections. Fiji software was used to assemble movies and kymographs, to track and record behaviour of individual spots. Graphs show mean ± SD. […] Where appropriate data was tested for normal distribution using Graphpad Prism software, and then subjected to the appropriate test as described in the methods for each experiment type.

[4] = system: Sla1 inhibition of Las17-mediated actin polymerisation; assay: Pyrene actin assay, alleviation of Sla1 inhibition of Las17-mediated actin polymerisation; assay type: biochemical; settings: Arp2/3-independent, activated Sec4, Las17 300 nM, Sla1 SH3 1+2+3 300 nM, 3 µM actin
Procedure: Fluorometry assays were performed as described previously. 370 μl assays used 3 μM actin as indicated unless otherwise specified. Pyrene-actin was added to 5%, mixed thoroughly, and added to the fluorometry cuvette. Polymerization salts, 10× KME (500 mM KCl, 10 mM MgCl2, 10 mM EGTA, 100 mM Tris-HCl [pH 8.0]) were mixed with fragments or G buffer to give final concentration of 0.5× KME before reading fluorescence. […] Experiments were carried out three separate times with different protein preparations and a representative graph shown.
Liposome binding assays were carried out as described previously. To prepare liposomes 11 μl of a 25 mg/ml solution of Folch fraction-1 was dried under a nitrogen stream. They were washed in chloroform, dried under nitrogen, and further washed with diethyl ether to remove all traces of chloroform before being dried again. […] The pellets were resuspended in 50 µl buffer B and samples were analysed by SDS-PAGE. The proportion of protein in each sample was determined by densitometry of the Coomassie stained gels using a BioRad GelDoc. […] To normalise the data the amount of protein in the supernatant and pellet of each sample was added together to give a value for 100%, and then the % in either the supernatant or pellet alone was calculated. […]

[5] = system: Sla1 inhibition of Las17-mediated actin polymerisation; settings: with Arp2/3; ref [24]; cited from earlier work
Source text: As shown in vitro in Fig. 7D, the addition of activated Sec4 to pyrene assays does indeed rel ...

Las17 = settings: cell free extracts; ref [24]; cited from earlier work
Source text: The model predicts an extensive interaction surface highlighted in red (Fig. 7E).

Substance	increase in nucleation rate compared to actin alone (actin [1])	number of filaments (actin [1]; 10 minute time point, 500 nM actin, 50 nM Las17, per unit area, errors are standard deviation, actin alone 16.3 ± 2.3)	effect on elongation rate of actin filaments (actin [2])	duration of co-localization of Las17-GFP and Arc15-mCherry [3]	time of Arc15-mCherry alone after Las17 disassembly [3]	time of Las17 at the site before Arc15 is recruited [3]	relief of Sla1 inhibition of Las17-mediated actin polymerisation [4]	relief of Sla1-SH3 inhibition of Las17-Arp2/3-mediated actin nucleation [5]	direct binding to Las17 (Las17)
Las17: Las17 fragment; residues not stated for TIRF; in b194 Las17 300–422; in b52 full length Las17-GFP in cells	two-three fold	42.3 ± 7.0	sufficient to increase the elongation rate of actin filaments	about 15 seconds	about 4 s	about 22 s			
Sec4: small GTPase Sec4 (full length)							does indeed relieve inhibition of Las17-mediated actin polymerisation	alleviated Sla1-SH3 domain inhibition of Las17-Arp2/3-mediated actin nucleation	could bind directly to Las17
